{
  "source": "paper PMC5218480",
  "about": "(PLoS ONE, 2017)",
  "test_system": "MV-4-11 cells",
  "assay": "Gene expression microarray analysis (Affymetrix PrimeView) and GSEA",
  "type": "cell-based, human",
  "parameters": "RFU PODN (11730768_x_at) / Fold change /veh PODN (11730768_x_at) / RFU LINC00158 (11744669_a_at) / Fold change /veh LINC00158 (11744669_a_at) / RFU DUSP10 (11751237_a_at) / Fold change /veh DUSP10 (11751237_a_at) / RFU ID3 (11757404_x_at) / Fold change /veh ID3 (11757404_x_at) / RFU PLEKHG5 (11737974_s_at) / Fold change /veh PLEKHG5 (11737974_s_at) / RFU LRRC4B (11730491_at) / Fold change /veh LRRC4B (11730491_at) / RFU GIMAP4 (11747438_a_at) / Fold change /veh GIMAP4 (11747438_a_at) / RFU KRT8 (11758183_x_at) / Fold change /veh KRT8 (11758183_x_at) / RFU CNN1 (11734310_a_at) / Fold change /veh CNN1 (11734310_a_at) / RFU VPS37D (11726825_at) / Fold change /veh VPS37D (11726825_at) / RFU C10orf10 (11716522_x_at) / Fold change /veh C10orf10 (11716522_x_at) / RFU KIR2DL2 /// KIR2DL4 /// KIR2DL5A /// KIR2DL5B /// KIR2DS1 /// KIR2DS2 /// KIR2DS3 /// KIR2DS4 /// KIR3DL3 /// KIR3DL3 /// KIR3DS1 (11738374_at) / Fold change /veh KIR2DL2 /// KIR2DL4 /// KIR2DL5A /// KIR2DL5B /// KIR2DS1 /// KIR2DS2 /// KIR2DS3 /// KIR2DS4 /// KIR3DL3 /// KIR3DL3 /// KIR3DS1 (11738374_at) / RFU C1QL1 (11718748_at) / Fold change /veh C1QL1 (11718748_at) / RFU TMPRSS4 (11747572_a_at) / Fold change /veh TMPRSS4 (11747572_a_at) / RFU HAMP (11756126_x_at) / Fold change /veh HAMP (11756126_x_at) / RFU RNFT2 (11725882_a_at) / Fold change /veh RNFT2 (11725882_a_at) / RFU NR4A2 (11747474_a_at) / Fold change /veh NR4A2 (11747474_a_at) / RFU ABCC12 (11746883_a_at) / Fold change /veh ABCC12 (11746883_a_at) / RFU TMEM136 (11760407_x_at) / Fold change /veh TMEM136 (11760407_x_at) / RFU CLDN22 /// WWC2 (11732394_at) / Fold change /veh CLDN22 /// WWC2 (11732394_at) / RFU HLA-DPB1 (11760878_x_at) / Fold change /veh HLA-DPB1 (11760878_x_at) / RFU SPINT1 (11716480_a_at) / Fold change /veh SPINT1 (11716480_a_at) / RFU GAP43 (11754022_s_at) / Fold change /veh GAP43 (11754022_s_at) / RFU A4GNT (11735810_at) / Fold change /veh A4GNT (11735810_at) / RFU PRB3 (11715151_x_at) / Fold change /veh PRB3 (11715151_x_at) / RFU TUBB4B (11761932_at) / Fold change /veh TUBB4B (11761932_at) / RFU CAPN14 (11732068_a_at) / Fold change /veh CAPN14 (11732068_a_at) / RFU TMCC2 (11721928_a_at) / Fold change /veh TMCC2 (11721928_a_at) / RFU IRGQ (11745062_a_at) / Fold change /veh IRGQ (11745062_a_at) / RFU FAM174B (11720279_a_at) / Fold change /veh FAM174B (11720279_a_at) / RFU TMPRSS4 (11748680_a_at) / Fold change /veh TMPRSS4 (11748680_a_at) / RFU FAM212B (11763350_a_at) / Fold change /veh FAM212B (11763350_a_at) / RFU PLEKHG5 (11743358_a_at) / Fold change /veh PLEKHG5 (11743358_a_at) / RFU ZSCAN30 (11745921_a_at) / Fold change /veh ZSCAN30 (11745921_a_at) / RFU CMKLR1 (11741424_a_at) / Fold change /veh CMKLR1 (11741424_a_at) / RFU LOC101060620 /// MAPK8IP1 (11723275_at) / Fold change /veh LOC101060620 /// MAPK8IP1 (11723275_at) / RFU SPTSSB (11747773_x_at) / Fold change /veh SPTSSB (11747773_x_at) / RFU PRSS12 (11739890_at) / Fold change /veh PRSS12 (11739890_at) / RFU BIN1 (11741810_x_at) / Fold change /veh BIN1 (11741810_x_at) / RFU WNT11 (11732464_a_at) / Fold change /veh WNT11 (11732464_a_at) / RFU C10orf10 (11716521_a_at) / Fold change /veh C10orf10 (11716521_a_at) / RFU C5orf56 (11738089_at) / Fold change /veh C5orf56 (11738089_at) / RFU CYB561 (11721691_x_at) / Fold change /veh CYB561 (11721691_x_at) / RFU ANKRD19P (11752326_a_at) / Fold change /veh ANKRD19P (11752326_a_at) / RFU OR2T12 /// OR2T33 /// OR2T8 (11738714_s_at) / Fold change /veh OR2T12 /// OR2T33 /// OR2T8 (11738714_s_at) / RFU VCAN (11748164_a_at) / Fold change /veh VCAN (11748164_a_at) / RFU JSRP1 (11732532_at) / Fold change /veh JSRP1 (11732532_at) / RFU KRTAP10-11 (11738290_x_at) / Fold change /veh KRTAP10-11 (11738290_x_at) / RFU MYO3A (11730013_a_at) / Fold change /veh MYO3A (11730013_a_at) / RFU EBF3 (11725865_a_at) / Fold change /veh EBF3 (11725865_a_at) / RFU CAMK2N1 (11719241_x_at) / Fold change /veh CAMK2N1 (11719241_x_at) / RFU C5orf56 (11738088_a_at) / Fold change /veh C5orf56 (11738088_a_at) / RFU OLFML3 (11715873_a_at) / Fold change /veh OLFML3 (11715873_a_at) / RFU LOC100653217 /// NTM (11731650_a_at) / Fold change /veh LOC100653217 /// NTM (11731650_a_at) / RFU MAPK11 (11762145_a_at) / Fold change /veh MAPK11 (11762145_a_at) / RFU FIZ1 (11724087_x_at) / Fold change /veh FIZ1 (11724087_x_at) / RFU OASL (11726364_x_at) / Fold change /veh OASL (11726364_x_at) / RFU SOX15 (11748057_x_at) / Fold change /veh SOX15 (11748057_x_at) / RFU CD79A (11719716_a_at) / Fold change /veh CD79A (11719716_a_at) / RFU HIST1H1D (11736915_at) / Fold change /veh HIST1H1D (11736915_at) / RFU CASKIN2 (11723855_a_at) / Fold change /veh CASKIN2 (11723855_a_at) / RFU LOC730098 (11760151_x_at) / Fold change /veh LOC730098 (11760151_x_at) / RFU OR4N2 (11742367_at) / Fold change /veh OR4N2 (11742367_at) / RFU PRRT2 (11749266_a_at) / Fold change /veh PRRT2 (11749266_a_at) / RFU SNX32 (11753110_a_at) / Fold change /veh SNX32 (11753110_a_at) / RFU CDHR5 (11726645_a_at) / Fold change /veh CDHR5 (11726645_a_at) / RFU RCAN1 (11760418_a_at) / Fold change /veh RCAN1 (11760418_a_at) / RFU FAM167A (11723789_a_at) / Fold change /veh FAM167A (11723789_a_at) / RFU FAM26E (11764081_at) / Fold change /veh FAM26E (11764081_at) / RFU ISYNA1 (11749810_s_at) / Fold change /veh ISYNA1 (11749810_s_at) / RFU ACY1 (11761880_at) / Fold change /veh ACY1 (11761880_at) / RFU 11764098_at / Fold change /veh 11764098_at / RFU SAMD14 (11745864_x_at) / Fold change /veh SAMD14 (11745864_x_at) / RFU NPB (11741838_a_at) / Fold change /veh NPB (11741838_a_at) / RFU TMPRSS6 (11731388_a_at) / Fold change /veh TMPRSS6 (11731388_a_at) / RFU KRTAP10-2 (11738614_at) / Fold change /veh KRTAP10-2 (11738614_at) / RFU ARHGAP8 /// PRR5-ARHGAP8 (11727945_x_at) / Fold change /veh ARHGAP8 /// PRR5-ARHGAP8 (11727945_x_at) / RFU KRTAP5-7 /// NADSYN1 (11734609_at) / Fold change /veh KRTAP5-7 /// NADSYN1 (11734609_at) / RFU RASL12 (11751679_a_at) / Fold change /veh RASL12 (11751679_a_at) / RFU CDKN2B (11736163_a_at) / Fold change /veh CDKN2B (11736163_a_at) / RFU PRF1 (11729649_at) / Fold change /veh PRF1 (11729649_at) / RFU, ZNF638 /// ZNF638-IT1 / Fold change vs veh, ZNF638 /// ZNF638-IT1 / RFU, PANK3 / Fold change vs veh, PANK3 / RFU, SH3YL1 / Fold change vs veh, SH3YL1 / RFU, ZEB2 / Fold change vs veh, ZEB2 / RFU, NRIP1 / Fold change vs veh, NRIP1 / RFU, PTTG1IP / Fold change vs veh, PTTG1IP / RFU, CAPN2 / Fold change vs veh, CAPN2 / RFU, MED14 / Fold change vs veh, MED14 / RFU, SNORA58 / Fold change vs veh, SNORA58 / RFU, C1orf63 / Fold change vs veh, C1orf63 / RFU, LRRFIP1 / Fold change vs veh, LRRFIP1 / RFU, NDUFAF7 / Fold change vs veh, NDUFAF7 / RFU, SLC12A2 / Fold change vs veh, SLC12A2 / RFU, IBTK / Fold change vs veh, IBTK / RFU, ESF1 / Fold change vs veh, ESF1 / Fold change vs veh, TMEM50B / RFU, TAOK1 / Fold change vs veh, TAOK1 / RFU, ACBD3 / Fold change vs veh, ACBD3 / RFU, TMA16 / Fold change vs veh, TMA16 / RFU, RWDD3 / Fold change vs veh, RWDD3 / RFU, BCAT1 / Fold change vs veh, BCAT1 / RFU, EDEM3 / Fold change vs veh, EDEM3 / RFU, TMEM33 / Fold change vs veh, TMEM33 / RFU, WDR75 / Fold change vs veh, WDR75 / RFU, AHCTF1 / Fold change vs veh, AHCTF1 / RFU, TFRC / Fold change vs veh, TFRC / RFU, ZDHHC17 / Fold change vs veh, ZDHHC17 / RFU, NOM1 / Fold change vs veh, NOM1 / RFU, ARL8B / Fold change vs veh, ARL8B / RFU, ZBTB11 / Fold change vs veh, ZBTB11 / RFU, TAMM41 / Fold change vs veh, TAMM41 / RFU, KIAA1704 /// LOC100996395 / Fold change vs veh, KIAA1704 /// LOC100996395 / RFU, ING1 / Fold change vs veh, ING1 / RFU, TRMT61B / Fold change vs veh, TRMT61B / RFU, FUBP3 / Fold change vs veh, FUBP3 / RFU, TP53 / Fold change vs veh, TP53 / RFU, TNKS2 / Fold change vs veh, TNKS2 / RFU, ZFP14 / Fold change vs veh, ZFP14 / RFU, ACTR2 / Fold change vs veh, ACTR2 / RFU, PPP3R1 / Fold change vs veh, PPP3R1 / RFU, PIK3R1 / Fold change vs veh, PIK3R1 / RFU, HNRNPA1 / Fold change vs veh, HNRNPA1 / RFU, RNF170 / Fold change vs veh, RNF170 / RFU, ZNF28 / Fold change vs veh, ZNF28 / RFU, RNGTT / Fold change vs veh, RNGTT / RFU, OGT / Fold change vs veh, OGT / RFU, BRD1 / Fold change vs veh, BRD1 / RFU, MARS / Fold change vs veh, MARS / RFU, ZNF655 / Fold change vs veh, ZNF655 / RFU, FAHD1 / Fold change vs veh, FAHD1 / RFU, BDP1 / Fold change vs veh, BDP1 / RFU, LRRCC1 / Fold change vs veh, LRRCC1 / RFU, ARID1A / Fold change vs veh, ARID1A / RFU, ZNF146 / Fold change vs veh, ZNF146 / RFU, ZNF330 / Fold change vs veh, ZNF330 / RFU, GPN3 / Fold change vs veh, GPN3 / RFU, C9orf123 / Fold change vs veh, C9orf123 / RFU, N4BP2L2 / Fold change vs veh, N4BP2L2 / RFU, ARFIP1 / Fold change vs veh, ARFIP1 / RFU, FAM179B / Fold change vs veh, FAM179B / RFU, BCL10 / Fold change vs veh, BCL10 / RFU, UHRF1BP1L / Fold change vs veh, UHRF1BP1L / RFU, BET1 / Fold change vs veh, BET1 / RFU, CNOT2 / Fold change vs veh, CNOT2 / RFU, ZNF268 / Fold change vs veh, ZNF268 / Fold change vs veh, ZNF507 / RFU, DGCR2 / Fold change vs veh, DGCR2 / RFU, WDSUB1 / Fold change vs veh, WDSUB1 / Fold change vs veh, HSP90B1 /// MIR3652 / RFU, ADSS / Fold change vs veh, ADSS / RFU, GK / Fold change vs veh, GK / RFU, ZNF148 / Fold change vs veh, ZNF148 / RFU, TAF9 / Fold change vs veh, TAF9 / RFU, SLC1A5 / Fold change vs veh, SLC1A5 / RFU, SLMO2 / Fold change vs veh, SLMO2 / RFU, ABCC4 / Fold change vs veh, ABCC4 / RFU, LOC101060439 /// RAP1B / Fold change vs veh, LOC101060439 /// RAP1B / RFU, RFX7 / Fold change vs veh, RFX7 / RFU, GTPBP10 / Fold change vs veh, GTPBP10 / RFU, CNEP1R1 / Fold change vs veh, CNEP1R1 / RFU, BIVM-ERCC5 /// ERCC5 / Fold change vs veh, BIVM-ERCC5 /// ERCC5 / RFU, ILF3 / Fold change vs veh, ILF3 / RFU 11762660_at / Fold change /veh 11762660_at / RFU VCAN (11757783_s_at) / Fold change /veh VCAN (11757783_s_at) / RFU DDX43 (11728927_at) / Fold change /veh DDX43 (11728927_at) / RFU KRT8 (11758188_x_at) / Fold change /veh KRT8 (11758188_x_at) / RFU NKD1 (11759106_at) / Fold change /veh NKD1 (11759106_at) / RFU SRD5A1 (11742802_a_at) / Fold change /veh SRD5A1 (11742802_a_at) / RFU TPSAB1 /// TPSB2 (11721975_s_at) / Fold change /veh TPSAB1 /// TPSB2 (11721975_s_at) / RFU GSTM3 (11746129_a_at) / Fold change /veh GSTM3 (11746129_a_at) / RFU IL23R (11737362_x_at) / Fold change /veh IL23R (11737362_x_at) / RFU TMEM51 (11727254_a_at) / Fold change /veh TMEM51 (11727254_a_at) / RFU PIWIL2 (11732686_x_at) / Fold change /veh PIWIL2 (11732686_x_at) / RFU ORM1 (11744905_x_at) / Fold change /veh ORM1 (11744905_x_at) / RFU CCDC152 (11743942_at) / Fold change /veh CCDC152 (11743942_at) / RFU ECM1 (11717891_a_at) / Fold change /veh ECM1 (11717891_a_at) / RFU IL23R (11748794_a_at) / Fold change /veh IL23R (11748794_a_at) / RFU TNFAIP8L3 (11732012_x_at) / Fold change /veh TNFAIP8L3 (11732012_x_at) / RFU MBOAT4 (11741988_at) / Fold change /veh MBOAT4 (11741988_at) / RFU 11764193_at / Fold change /veh 11764193_at / RFU TMEM53 (11763286_at) / Fold change /veh TMEM53 (11763286_at) / RFU MAGEB2 (11727129_at) / Fold change /veh MAGEB2 (11727129_at) / RFU TMEM200A (11744735_a_at) / Fold change /veh TMEM200A (11744735_a_at) / RFU CCDC152 (11751479_a_at) / Fold change /veh CCDC152 (11751479_a_at) / RFU FAM211A (11726209_a_at) / Fold change /veh FAM211A (11726209_a_at) / RFU RGS16 (11746705_a_at) / Fold change /veh RGS16 (11746705_a_at) / RFU VCAN (11755009_s_at) / Fold change /veh VCAN (11755009_s_at) / RFU RHOB (11743442_s_at) / Fold change /veh RHOB (11743442_s_at) / RFU RGS16 (11720943_a_at) / Fold change /veh RGS16 (11720943_a_at) / RFU RGS16 (11720944_at) / Fold change /veh RGS16 (11720944_at) / RFU, VPS4B / Fold change vs veh, VPS4B / RFU, CREB1 / Fold change vs veh, CREB1 / RFU, DNAJC13 / Fold change vs veh, DNAJC13 / RFU, GNAQ / Fold change vs veh, GNAQ / RFU, CDK5R1 / Fold change vs veh, CDK5R1 / RFU, ZRANB3 / Fold change vs veh, ZRANB3 / RFU, CUL4A / Fold change vs veh, CUL4A / RFU, CCNY / Fold change vs veh, CCNY / RFU, UFL1 / Fold change vs veh, UFL1 / RFU, COG3 / Fold change vs veh, COG3 / RFU, DIAPH2 / Fold change vs veh, DIAPH2 / RFU, SKA2 / Fold change vs veh, SKA2 / RFU, AFF3 / Fold change vs veh, AFF3 / RFU, LMF1 / Fold change vs veh, LMF1 / RFU, IPO11 / Fold change vs veh, IPO11 / RFU, DFFB / Fold change vs veh, DFFB / RFU, FOXP1 / Fold change vs veh, FOXP1 / RFU, CARD8 / Fold change vs veh, CARD8 / RFU, STRN3 / Fold change vs veh, STRN3 / RFU, ADK / Fold change vs veh, ADK / RFU, RASSF2 / Fold change vs veh, RASSF2 / RFU, WIPF1 / Fold change vs veh, WIPF1 / RFU, LARP1B / Fold change vs veh, LARP1B / RFU, RASA1 / Fold change vs veh, RASA1 / RFU, RB1 / Fold change vs veh, RB1 / RFU, PPFIA1 / Fold change vs veh, PPFIA1 / RFU, MAT2A / Fold change vs veh, MAT2A / RFU, CCT5 / Fold change vs veh, CCT5 / RFU, WDR92 / Fold change vs veh, WDR92 / RFU, CUX1 / Fold change vs veh, CUX1 / RFU, TTC7A / Fold change vs veh, TTC7A / RFU, TMEM135 / Fold change vs veh, TMEM135 / RFU, DEPTOR / Fold change vs veh, DEPTOR / RFU, CPM / Fold change vs veh, CPM / RFU, DNAJB6 / Fold change vs veh, DNAJB6 / RFU, CACNA2D3 / Fold change vs veh, CACNA2D3 / RFU, DTX4 / Fold change vs veh, DTX4 / RFU, TFCP2 / Fold change vs veh, TFCP2 / RFU, GMCL1 /// GMCL1P1 / Fold change vs veh, GMCL1 /// GMCL1P1 / RFU, AEBP2 / Fold change vs veh, AEBP2 / RFU, SNHG1 /// SNORD22 /// SNORD25 /// SNORD26 /// SNORD27 /// SNORD28 /// SNORD29 /// SNORD31 / Fold change vs veh, SNHG1 /// SNORD22 /// SNORD25 /// SNORD26 /// SNORD27 /// SNORD28 /// SNORD29 /// SNORD31 / Fold change (Aza/veh), C12orf56 (ProbeSet 11735607_a_at) / Fold change (ACY-1035/veh), C12orf56 (ProbeSet 11735607_a_at) / Fold change (Aza/veh), FGFR1OP (ProbeSet 11751329_s_at) / Fold change (ACY-1035/veh), FGFR1OP (ProbeSet 11751329_s_at) / Fold change (Aza/veh), VPS36 (ProbeSet 11739960_a_at) / Fold change (ACY-1035/veh), VPS36 (ProbeSet 11739960_a_at) / RFU SYPL1 (11715823_x_at) / Fold change /veh SYPL1 (11715823_x_at) / RFU IGFBP7 (11715501_s_at) / Fold change /veh IGFBP7 (11715501_s_at) / RFU REEP3 (11722064_at) / Fold change /veh REEP3 (11722064_at) / RFU IGLL1 (11728026_x_at) / Fold change /veh IGLL1 (11728026_x_at): dose or concentration left out as unconfirmed",
  "conditions": "ProbeSet 11719493_s_at; LIST B",
  "data": [
    {"smiles": "Nc1ncn([C@@H]2O[C@H](CO)[C@@H](O)[C@H]2O)c(=O)n1", "note": "[azacitidine]", "values": [
      {"measurement": "Fold change vs veh, TAF9", "result": 1.00}
    ]}
  ]
}
